Patent US10479780B2, “Aminopyrazole derivatives” (Chugai Seiyaku Kabushiki Kaisha, priority 2015, dated 2019)
Read-outs that look alike come from different tables or passages of the source.

Columns and labels:
Type in all cases: biochemical
[1] = biological target: T1, human Src enzyme (Homo sapiens, UniProt P12931); test: Src enzyme inhibitory activity (time-resolved fluorometry, biotinylated peptide phosphorylation); settings: read-out: SRC_IC50
T1 construct: purchased Carna Biosciences, Inc. 08-173
T1 sequence (P12931 whole entry): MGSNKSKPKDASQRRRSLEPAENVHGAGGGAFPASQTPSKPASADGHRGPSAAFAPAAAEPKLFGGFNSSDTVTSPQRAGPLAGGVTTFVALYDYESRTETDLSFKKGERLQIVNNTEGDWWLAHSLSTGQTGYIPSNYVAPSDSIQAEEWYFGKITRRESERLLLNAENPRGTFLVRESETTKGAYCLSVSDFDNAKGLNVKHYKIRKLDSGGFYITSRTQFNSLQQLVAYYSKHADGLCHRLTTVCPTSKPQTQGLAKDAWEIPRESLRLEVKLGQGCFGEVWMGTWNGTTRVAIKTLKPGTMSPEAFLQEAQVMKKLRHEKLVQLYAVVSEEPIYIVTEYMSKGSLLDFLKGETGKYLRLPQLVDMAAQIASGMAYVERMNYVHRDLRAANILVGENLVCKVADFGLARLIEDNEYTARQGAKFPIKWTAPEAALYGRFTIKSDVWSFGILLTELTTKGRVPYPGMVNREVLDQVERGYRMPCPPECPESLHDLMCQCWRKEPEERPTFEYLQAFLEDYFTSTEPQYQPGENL
In short: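 Compounds were tested for blocking tyrosine phosphorylation of a biotinylated peptide substrate by recombinant human Src. Phosphorylated product was quantified by time-resolved fluorometry using europium cryptate and XL665 conjugates, and IC50 was calculated against the compound-free control.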

[2] = biological target: T2, human Lck enzyme (Homo sapiens, UniProt P06239); test: Lck enzyme inhibitory activity (time-resolved fluorometry, biotinylated peptide phosphorylation); settings: read-out: LCK_IC50
T2 construct: purchased Carna Biosciences, Inc. 08-170
T2 sequence (P06239 whole entry): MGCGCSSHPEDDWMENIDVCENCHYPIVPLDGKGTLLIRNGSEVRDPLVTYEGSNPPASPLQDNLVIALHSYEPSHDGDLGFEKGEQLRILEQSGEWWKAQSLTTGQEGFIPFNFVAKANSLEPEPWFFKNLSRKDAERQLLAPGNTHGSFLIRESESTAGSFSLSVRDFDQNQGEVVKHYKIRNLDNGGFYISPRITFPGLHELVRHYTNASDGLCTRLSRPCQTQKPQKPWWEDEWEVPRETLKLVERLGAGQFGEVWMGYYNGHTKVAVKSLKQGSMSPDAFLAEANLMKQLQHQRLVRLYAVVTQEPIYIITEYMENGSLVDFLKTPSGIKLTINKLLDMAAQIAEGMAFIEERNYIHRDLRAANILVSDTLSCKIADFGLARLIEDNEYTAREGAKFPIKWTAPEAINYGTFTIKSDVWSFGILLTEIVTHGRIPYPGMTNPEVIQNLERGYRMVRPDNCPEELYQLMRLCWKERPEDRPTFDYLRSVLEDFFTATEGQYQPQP
In short: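 Readout pairs a europium cryptate-labelled anti-phosphotyrosine antibody with XL665-streptavidin, measured by time-resolved fluorescence. IC50 derived from percent inhibition against untreated controls.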

[3] = biological target: T3, human Yes1 enzyme (Homo sapiens, UniProt P07947); test: Yes1 enzyme inhibitory activity (time-resolved fluorometry, biotinylated peptide phosphorylation); settings: read-out: YES_IC50
T3 construct: made in house
T3 sequence (P07947 whole entry): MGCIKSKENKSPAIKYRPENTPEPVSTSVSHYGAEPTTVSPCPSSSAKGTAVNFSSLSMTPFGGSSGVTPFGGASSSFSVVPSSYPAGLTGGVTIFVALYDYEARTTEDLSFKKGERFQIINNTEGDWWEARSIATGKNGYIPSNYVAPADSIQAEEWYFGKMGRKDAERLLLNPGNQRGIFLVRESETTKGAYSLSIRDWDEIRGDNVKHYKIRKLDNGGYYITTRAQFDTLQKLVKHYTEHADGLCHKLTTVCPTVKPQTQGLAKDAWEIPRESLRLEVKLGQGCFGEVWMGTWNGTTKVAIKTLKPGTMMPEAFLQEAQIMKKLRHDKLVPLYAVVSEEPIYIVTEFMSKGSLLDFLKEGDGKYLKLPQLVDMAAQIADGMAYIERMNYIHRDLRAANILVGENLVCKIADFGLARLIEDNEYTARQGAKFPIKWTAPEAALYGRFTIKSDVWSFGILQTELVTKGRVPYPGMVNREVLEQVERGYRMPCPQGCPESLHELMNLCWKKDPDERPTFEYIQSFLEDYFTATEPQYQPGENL
In short: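 Inhibition was expressed against a compound-free control to give IC50, using TR-FRET read-out (Eu-cryptate anti-pTyr antibody, streptavidin-XL665).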

[4] = biotinylated peptide phosphorylation

SMILES	IC50 [1] [nM]	IC50 [2] [nM]	IC50 [3] [nM]	IC50 [1, 4] [nM]	IC50 [2, 4] [nM]	IC50 [3, 4] [nM]
Cc1cc(Oc2ccccc2F)ncc1-n1ncc(C(=O)c2cc3cc(SC(F)F)c(N4C(=O)NC(C)(C)C4=O)cc3[nH]2)c1N [Example 5-1-359, 3-[2-[5-amino-1-[6-(2-fluorophenoxy)-4-methylpyridin-3-yl]pyrazole-4-carbonyl]-5-(difluoromethylsulfanyl)-1H-indol-6-yl]-5,5-dimethylimidazolidine-2,4-dione]	130	25	6			
Cc1cc(Oc2ccccc2F)ccc1-n1ncc(C(=O)c2cc3cc(OC(F)F)c(C4CCN(S(C)(=O)=O)CC4)cc3[nH]2)c1N [Example 4-17-003, [5-amino-1-[4-(2-fluorophenoxy)-2-methylphenyl]pyrazol-4-yl]-[5-(difluoromethoxy)-6-(1-methylsulfonylpiperidin-4-yl)-1H-indol-2-yl]methanone]				23	20	7.4
Cc1cnc(F)c(S(=O)(=O)Nc2cc3[nH]c(C(=O)c4cnn(-c5cnc(Oc6c(F)cccc6F)cc5C)c4N)cc3cc2OCC(F)F)c1 [Example 5-1-571, N-[2-[5-amino-1-[6-(2,6-difluorophenoxy)-4-methylpyridin-3-yl]pyrazole-4-carbonyl]-5-(2,2-difluoroethoxy)-1H-indol-6-yl]-2-fluoro-5-methylpyridine-3-sulfonamide]				540	30	2.2
Cc1cc2[nH]c(C(=O)c3cnn(-c4ccc(Oc5cccc(F)c5F)cc4C)c3N)cc2cc1NS(C)(=O)=O [Example 4-2-050, N-[2-[5-amino-1-[4-(2,3-difluorophenoxy)-2-methylphenyl]pyrazole-4-carbonyl]-6-methyl-1H-indol-5-yl]methanesulfonamide]				7	1.7	0.2
Cc1cc(Oc2ccccc2F)ccc1-n1ncc(C(=O)c2cc3cc(F)c(NS(N)(=O)=O)cc3[nH]2)c1N [Example 4-20-001, 2-[5-amino-1-[4-(2-fluorophenoxy)-2-methylphenyl]pyrazole-4-carbonyl]-5-fluoro-6-(sulfamoylamino)-1H-indole]				31	3.5	0.64
Cc1cc(Oc2c(F)cccc2F)ncc1-n1ncc(C(=O)c2cc3cc(F)c(N4CCCS4(=O)=O)cc3[nH]2)c1N [Example 4-9-002, [5-amino-1-[6-(2,6-difluorophenoxy)-4-methylpyridin-3-yl]pyrazol-4-yl]-[6-(1,1-dioxo-1,2-thiazolidin-2-yl)-5-fluoro-1H-indol-2-yl]methanone]				9.8	0.96	0.72
Cc1cc(Oc2ccccc2F)ccc1-n1ncc(C(=O)c2cc3cc(OCC(F)F)c(N4CC5(CCCC5)NS4(=O)=O)cc3[nH]2)c1N [Example 5-1-323, [5-amino-1-[4-(2-fluorophenoxy)-2-methylphenyl]pyrazol-4-yl]-[5-(2,2-difluoroethoxy)-6-(2,2-dioxo-2λ6-thia-1,3-diazaspiro[4.4]nonan-3-yl)-1H-indol-2-yl] methanone]	230	40	9.1			
Cc1cc(Oc2cccc(F)c2F)ncc1-n1ncc(C(=O)c2cc3cc(F)c(NS(=O)(=O)CCCF)cc3[nH]2)c1N [Example 4-2-022, N-[2-[5-amino-1-[6-(2,3-difluorophenoxy)-4-methylpyridin-3-yl]pyrazole-4-carbonyl]-5-fluoro-1H-indol-6-yl]-3-fluoropropane-1-sulfonamide]				140	26	5.4
Cc1cc2cc(C(=O)c3cnn(-c4cnc(Oc5ccccc5C)cc4C)c3N)[nH]c2cc1NS(C)(=O)=O [Example 4-2-065, N-[2-[5-amino-1-[4-methyl-6-(2-methylphenoxy)pyridin-3-yl]pyrazole-4-carbonyl]-5-methyl-1H-indol-6-yl]methanesulfonamide]				44	18	2.2
Cc1cc(Oc2c(F)cccc2F)ncc1-n1ncc(C(=O)c2cc3cc(OC(F)F)c(C4CCN(C(=O)CN)CC4)cc3[nH]2)c1N [Example 4-18-003, 2-amino-1-[4-[2-[5-amino-1-[6-(2,6-difluorophenoxy)-4-methylpyridin-3-yl]pyrazole-4-carbonyl]-5-(difluoromethoxy)-1H-indol-6-yl]piperidin-1-yl]ethanone]				23	11	4.8
Cc1cc(Oc2ccccc2F)ccc1-n1ncc(C(=O)c2cc3cc(OC(F)F)c(N4C(=O)C(C)(C)NC4=S)cc3[nH]2)c1N [Example 4-23-039, 3-[2-[5-amino-1-[4-(2-fluorophenoxy)-2-methylphenyl]pyrazole-4-carbonyl]-5-(difluoromethoxy)-1H-indol-6-yl]-5,5-dimethyl-2-sulfanylideneimidazolidin-4-one]				60	16	0.81
Cc1cc(Oc2ccccc2Cl)ncc1-n1ncc(C(=O)c2cc3cc(F)c(NS(=O)(=O)CCCF)cc3[nH]2)c1N [Example 4-2-023, N-[2-[5-amino-1-[6-(2-chlorophenoxy)-4-methylpyridin-3-yl]pyrazole-4-carbonyl]-5-fluoro-1H-indol-6-yl]-3-fluoropropane-1-sulfonamide]				84	47	1.7
Cc1cc(Oc2ccccc2F)ccc1-n1ncc(C(=O)c2cc3cc(F)c(NS(=O)(=O)c4cccc(F)c4)cc3[nH]2)c1N [Example 5-1-552, N-[2-[5-amino-1-[4-(2-fluorophenoxy)-2-methylphenyl]pyrazole-4-carbonyl]-5-fluoro-1H-indol-6-yl]-3-fluorobenzenesulfonamide]				830	130	5.4
Cc1cc(-n2ncc(C(=O)c3cc4cc(OC5CCN(C(C)C)CC5)c(F)cc4[nH]3)c2N)ccc1Oc1ccccc1F [Example 5-1-195, [5-amino-1-[4-(2-fluorophenoxy)-3-methylphenyl]pyrazol-4-yl]-[6-fluoro-5-(1-propan-2-ylpiperidin-4-yl)oxy-1H-indol-2-yl] methanone]	190	45	1.3			
Cc1cc(Oc2c(F)cccc2F)ncc1-n1ncc(C(=O)c2cc3cc(OC(F)F)c(N4CCC(N5CCOCC5)CC4)cc3[nH]2)c1N [Example 4-25-031, [5-amino-1-[6-(2,6-difluorophenoxy)-4-methylpyridin-3-yl]pyrazol-4-yl]-[5-(difluoromethoxy)-6-(4-morpholin-4-ylpiperidin-1-yl)-1H-indol-2-yl]methanone]				48	7.2	1.9
Cc1cc2cc(C(=O)c3cnn(-c4cnc(Oc5c(F)cccc5F)cc4C)c3N)[nH]c2cc1N1CC(C)(C)NS1(=O)=O [Example 5-1-313, [5-amino-1-[6-(2,6-difluorophenoxy)-4-methylpyridin-3-yl]pyrazol-4-yl]-[6-(4,4-dimethyl-1,1-dioxo-1,2,5-thiadiazolidin-2-yl)-5-methyl-1H-indol-2-yl]methanone]	73	19	2.8			
Cc1cc(Oc2c(F)cccc2F)ncc1-n1ncc(C(=O)c2cc3cc(OC4CCN(C(C)C)CC4)c(C4CCN(S(C)(=O)=O)CC4)cc3[nH]2)c1N [Example 5-1-229, (5-amino-1-(6-(2,6-difluorophenoxy)-4-methylpyridin-3-yl)-1H-pyrazol-4-yl)(5-((1-isopropylpiperidin-4-yl)oxy)-6-(1-(methylsulfonyl)piperidin-4-yl)-1H-indol-2-yl)methanone]	6.1	2.4	0.77			
Cc1cc2cc(C(=O)c3cnn(-c4cnc(Oc5ccccc5F)cc4C)c3N)[nH]c2cc1C1CCN(S(=O)(=O)C2CC2)CC1 [Example 5-1-123, [5-amino-1-[6-(2-fluorophenoxy)-4-methylpyridin-3-yl]pyrazol-4-yl]-[6-(1-cyclopropylsulfonylpiperidin-4-yl)-5-methyl-1H-indol-2-yl]methanone]	91	33	2			
Cc1cc2cc(C(=O)c3cnn(-c4ccc(Oc5ccccc5F)cc4C)c3N)[nH]c2cc1N1C(=O)NC2(CCN(Cc3ccccc3)C2)C1=O (stereo not drawn) [Example 5-1-394, 3-[2-[5-amino-1-[4-(2-fluorophenoxy)-2-methylphenyl]pyrazole-4-carbonyl]-5-methyl-1H-indol-6-yl]-7-benzyl-1,3,7-tnazaspiro[4.4] nonane-2,4-dione]	93	21	2.9			
Cc1cc2cc(C(=O)c3cnn(-c4ccc(Oc5ccccc5F)cc4C)c3N)[nH]c2cc1NS(C)(=O)=O [Example 4-2-053, N-[2-[5-amino-1-[4-(2-fluorophenoxy)-2-methylphenyl]pyrazole-4-carbonyl]-5-methyl-1H-indol-6-yl]methanesulfonamide]				19	5.1	0.34
Cc1cc(Oc2c(F)cccc2F)ncc1-n1ncc(C(=O)c2cc3cc(F)c(NS(=O)(=O)C4CCOCC4)cc3[nH]2)c1N [Example 5-1-381, N-[2-[5-amino-1-[6-(2,6-difluorophenoxy)-4-methylpyridin-3-yl]pyrazole-4-carbonyl]-5-fluoro-1H-indol-6-yl]oxane-4-sulfonamide]	56	43	3.3			
Cc1cc2cc(C(=O)c3cnn(-c4cnc(Oc5ccccc5F)cc4C)c3N)[nH]c2cc1C1CCN(S(C)(=O)=O)CC1 [Example 5-1-090, [5-amino-1-[6-(2-fluorophenoxy)-4-methylpyridin-3-yl]pyrazol-4-yl]-[5-methyl-6-(1-methylsulfonylpiperidin-4-yl)-1H-indol-2-yl] methanone]	25	3.8	2.6			
